From the supplement of paper PMC11208160 come the findings set out here.

This series in a line: recombinant barcode read abundance after kanamycin selection (control-corrected) (log10(CPM+1)); higher = more efficient recombination; sequences stand for … in AGTGCAGAGAAAATCGGCCAGTTTTCTCTGCCTGCAGTCCGCATGCCGT…AGATTTATGCAGCGGACTGCCTTTCTCCCAAAGTGATAAACCGGACAGTATCATGGACCGGTTTTCCCGGTAATCCGTATTTGCAAGGTTGGTTTCACT; site = the 11-nt target. In a few lines: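 Each value is log10(CPM+1). It describes recombination efficiency, taken as averaged, control-corrected counts per million of barcodes at recombinant junctions. The pooled E. coli library paired targets with IS621 bridge RNA target-binding loops, was co-electroporated with a donor plasmid, and was plated twice on chloramphenicol/ampicillin LB agar (control) and twice on chloramphenicol/ampicillin/kanamycin containing 0.1 mM IPTG.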
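Note: IS621 recombinase and bridge RNA in Escherichia coli cells.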

On to “AGGAATCCTTGGGTTCTAACCTGTTGCTT (site AGGAATCCTAA)”, for which the “recombinant barcode read abundance (log10)” value is 0.901.

Turning to “AGGAATCCTTGGGTTCTAACCTGTTGCTT (site AGGAGTCCTCA)”, the “recombinant barcode read abundance (log10)” value worked out at 0.0229.

Turning to “AGGACAACTTGGGTTCTAACCTGTTGCCT (site AGAACAACTAG)”, the “recombinant barcode read abundance (log10)” value amounted to 0.106.

On to “AGGACAACTTGGGTTCTAACCTGTTGCCT (site AGCACAACTAG)”, for which the “recombinant barcode read abundance (log10)” value amounted to 0.155.

Consider “AGGACAACTTGGGTTCTAACCTGTTGCCT (site AGGACAACTAG)”, for which the “recombinant barcode read abundance (log10)” value was 0.048.

For the sequence “AGGACAACTTGGGTTCTAACCTGTTGCCT (site AGTACAACTAG)”, the “recombinant barcode read abundance (log10)” value came to 0.181.

Regarding “AGGAGCCCTTGGGTTCTAACCTGTTGCCT (site AGGAGCCCTAG)”, the “recombinant barcode read abundance (log10)” value was determined as 1.48.

As to “AGGAGCCCTTGGGTTCTAACCTGTTGCCT (site AGGAGCCCTTG)”, the “recombinant barcode read abundance (log10)” value came to 0.0624.

As for “AGGAGTACTTGGGTTCTAACCTGTTGCTT (site AGGAGTACTAA)”, the “recombinant barcode read abundance (log10)” value turned out to be 0.761.

Consider “AGGAGTACTTGGGTTCTAACCTGTTGCTT (site GCATCCTCTTG)”, for which the “recombinant barcode read abundance (log10)” value is 0.12.

Consider “AGGCCCACTTGGGTTCTAACCTGTTGCAT (site AGGCCCACTAT)”, for which the “recombinant barcode read abundance (log10)” value turned out to be 2.12.

Consider “AGGCCCACTTGGGTTCTAACCTGTTGCAT (site GCTGAGTCTTA)”, for which the “recombinant barcode read abundance (log10)” value is 0.109.

Turning to “AGGCCGGCTTGGGTTCTAACCTGTTGCCG (site AGGCCGCCTCG)”, the “recombinant barcode read abundance (log10)” value is 0.294.

For the sequence “AGGCCGGCTTGGGTTCTAACCTGTTGCCG (site AGGCCGGCTCG)”, the “recombinant barcode read abundance (log10)” value is 0.329.

With “AGGCCGTCTTGGGTTCTAACCTGTTGCGG (site AGGCCGTCTCC)”, the “recombinant barcode read abundance (log10)” value was determined as 0.815.

In the case of “AGGCCGTCTTGGGTTCTAACCTGTTGCGG (site CACTACCCTAA)”, the “recombinant barcode read abundance (log10)” value was 0.357.

With “AGGCGCCCTTGGGTTCTAACCTGTTGCAC (site AGGCGCCCTAT)”, the “recombinant barcode read abundance (log10)” value was determined as 0.249.

On to “AGGCGCCCTTGGGTTCTAACCTGTTGCAC (site AGGCGCCCTCT)”, for which the “recombinant barcode read abundance (log10)” value turned out to be 0.112.

Take “AGGCGCCCTTGGGTTCTAACCTGTTGCAC (site AGGCGCCCTGT)”: the “recombinant barcode read abundance (log10)” value is 1.33.

As to “AGGCGCCCTTGGGTTCTAACCTGTTGCAC (site AGGCGCCCTTT)”, the “recombinant barcode read abundance (log10)” value stood at 0.0439.

With “AGGCGTACTTGGGTTCTAACCTGTTGCCT (site AGACGTACTAG)”, the “recombinant barcode read abundance (log10)” value is 0.0558.

“AGGCGTACTTGGGTTCTAACCTGTTGCCT (site AGCCGTACTAG)”: the “recombinant barcode read abundance (log10)” value came out at 0.302.

“AGGCGTACTTGGGTTCTAACCTGTTGCCT (site AGGCGTACTAG)”: the “recombinant barcode read abundance (log10)” value came out at 0.465.

With “AGGCGTACTTGGGTTCTAACCTGTTGCCT (site AGTCGTACTAG)”, the “recombinant barcode read abundance (log10)” value is 0.0768.

Consider “AGGCGTCCTTGGGTTCTAACCTGTTGCCA (site AGGCGTCCTAG)”, for which the “recombinant barcode read abundance (log10)” value worked out at 0.181.

Consider “AGGCGTCCTTGGGTTCTAACCTGTTGCCA (site AGGCGTCCTCG)”, for which the “recombinant barcode read abundance (log10)” value worked out at 0.056.

Take “AGGCGTCCTTGGGTTCTAACCTGTTGCCA (site AGGCGTCCTGG)”: the “recombinant barcode read abundance (log10)” value was 0.315.

For the sequence “AGGCGTCCTTGGGTTCTAACCTGTTGCCA (site AGGCGTCCTTG)”, the “recombinant barcode read abundance (log10)” value worked out at 0.802.

With “AGGCTCCCTTGGGTTCTAACCTGTTGCCT (site AGACTCCCTAG)”, the “recombinant barcode read abundance (log10)” value was determined as 0.193.

Regarding “AGGCTCCCTTGGGTTCTAACCTGTTGCCT (site AGCCTCCCTAG)”, the “recombinant barcode read abundance (log10)” value amounted to 0.0453.

On to “AGGCTCCCTTGGGTTCTAACCTGTTGCCT (site AGGCTCCCTAG)”, for which the “recombinant barcode read abundance (log10)” value was found to be 0.547.

Turning to “AGGCTCCCTTGGGTTCTAACCTGTTGCCT (site AGTCTCCCTAG)”, the “recombinant barcode read abundance (log10)” value was found to be 0.619.

Turning to “AGGCTGTCTTGGGTTCTAACCTGTTGCCT (site AGGCTGACTAG)”, the “recombinant barcode read abundance (log10)” value is 0.54.

With “AGGCTGTCTTGGGTTCTAACCTGTTGCCT (site AGGCTGCCTAG)”, the “recombinant barcode read abundance (log10)” value is 0.613.

On to “AGGCTGTCTTGGGTTCTAACCTGTTGCCT (site AGGCTGGCTAG)”, for which the “recombinant barcode read abundance (log10)” value worked out at 0.0597.

For “AGGCTGTCTTGGGTTCTAACCTGTTGCCT (site AGGCTGTCTAG)”, the “recombinant barcode read abundance (log10)” value was found to be 1.84.

Take “AGGGAAGCTTGGGTTCTAACCTGTTGCCT (site AGGGAAGCTAG)”: the “recombinant barcode read abundance (log10)” value amounted to 0.879.

Regarding “AGGGAAGCTTGGGTTCTAACCTGTTGCCT (site AGGGCAGCTAG)”, the “recombinant barcode read abundance (log10)” value came out at 0.385.

For “AGGGAAGCTTGGGTTCTAACCTGTTGCCT (site AGGGGAGCTAG)”, the “recombinant barcode read abundance (log10)” value was determined as 0.768.

Consider “AGGGAAGCTTGGGTTCTAACCTGTTGCCT (site AGGGTAGCTAG)”, for which the “recombinant barcode read abundance (log10)” value turned out to be 0.391.

In the case of “AGGGAATCTTGGGTTCTAACCTGTTGCCT (site AGAGAATCTAG)”, the “recombinant barcode read abundance (log10)” value turned out to be 0.759.

Take “AGGGAATCTTGGGTTCTAACCTGTTGCCT (site AGCGAATCTAG)”: the “recombinant barcode read abundance (log10)” value was 0.124.

“AGGGAATCTTGGGTTCTAACCTGTTGCCT (site AGGGAATCTAG)”: the “recombinant barcode read abundance (log10)” value came out at 1.04.

As to “AGGGAATCTTGGGTTCTAACCTGTTGCCT (site AGTGAATCTAG)”, the “recombinant barcode read abundance (log10)” value was 0.182.

“AGGGATACTTGGGTTCTAACCTGTTGCGT (site AGGGATACTAC)”: the “recombinant barcode read abundance (log10)” value came to 3.32.

For the sequence “AGGGATACTTGGGTTCTAACCTGTTGCGT (site ATGGATACTAC)”, the “recombinant barcode read abundance (log10)” value stood at 1.58.

Turning to “AGGGATACTTGGGTTCTAACCTGTTGCTT (site AGGGAGACTAA)”, the “recombinant barcode read abundance (log10)” value is 0.303.

With “AGGGATACTTGGGTTCTAACCTGTTGCTT (site AGGGATACTAA)”, the “recombinant barcode read abundance (log10)” value is 1.42.

Turning to “AGGGCATCTTGGGTTCTAACCTGTTGCCT (site AGGGCATCTAG)”, the “recombinant barcode read abundance (log10)” value was determined as 0.122.

With “AGGGCATCTTGGGTTCTAACCTGTTGCCT (site AGGGCGTCTCG)”, the “recombinant barcode read abundance (log10)” value was 0.245.

As for “AGGGTCGCTTGGGTTCTAACCTGTTGCCT (site AGGGTCGCTAG)”, the “recombinant barcode read abundance (log10)” value is 2.5.

“AGGGTCGCTTGGGTTCTAACCTGTTGCCT (site CACAGTCCTTA)”: the “recombinant barcode read abundance (log10)” value came out at 0.344.

Take “AGGGTGCCTTGGGTTCTAACCTGTTGCTA (site AGGGTGCCTTA)”: the “recombinant barcode read abundance (log10)” value was found to be 2.11.

With “AGGGTGCCTTGGGTTCTAACCTGTTGCTA (site AGGGTGTCTCA)”, the “recombinant barcode read abundance (log10)” value came to 0.106.

In the case of “AGGGTTCCTTGGGTTCTAACCTGTTGCTT (site AGGGTTCCTAA)”, the “recombinant barcode read abundance (log10)” value turned out to be 2.05.

On to “AGGGTTCCTTGGGTTCTAACCTGTTGCTT (site TCATGGGCTCT)”, for which the “recombinant barcode read abundance (log10)” value was found to be 0.0235.

In the case of “AGGTAGACTTGGGTTCTAACCTGTTGCCA (site AGGAAGACTTG)”, the “recombinant barcode read abundance (log10)” value was determined as 0.0263.

For “AGGTAGACTTGGGTTCTAACCTGTTGCCA (site AGGCAGACTTG)”, the “recombinant barcode read abundance (log10)” value was 0.583.

As for “AGGTAGACTTGGGTTCTAACCTGTTGCCA (site AGGGAGACTTG)”, the “recombinant barcode read abundance (log10)” value is 0.179.

Take “AGGTAGACTTGGGTTCTAACCTGTTGCCA (site AGGTAGACTTG)”: the “recombinant barcode read abundance (log10)” value came to 1.5.

For “AGGTCACCTTGGGTTCTAACCTGTTGCGT (site AGGTCACCTAA)”, the “recombinant barcode read abundance (log10)” value worked out at 0.276.

“AGGTCACCTTGGGTTCTAACCTGTTGCGT (site AGGTCACCTAC)”: the “recombinant barcode read abundance (log10)” value was 2.82.

As to “AGGTCACCTTGGGTTCTAACCTGTTGCGT (site AGGTCACCTAG)”, the “recombinant barcode read abundance (log10)” value worked out at 0.536.

For “AGGTCACCTTGGGTTCTAACCTGTTGCGT (site AGGTCACCTAT)”, the “recombinant barcode read abundance (log10)” value was 1.08.

As to “AGGTCACCTTGGGTTCTAACCTGTTGCTT (site AGGTCACCTAA)”, the “recombinant barcode read abundance (log10)” value was 0.941.

Consider “AGGTCACCTTGGGTTCTAACCTGTTGCTT (site AGGTCACCTAC)”, for which the “recombinant barcode read abundance (log10)” value stood at 0.0772.

Regarding “AGGTCACCTTGGGTTCTAACCTGTTGCTT (site AGGTCACCTAG)”, the “recombinant barcode read abundance (log10)” value is 0.914.

Turning to “AGGTCACCTTGGGTTCTAACCTGTTGCTT (site AGGTCACCTAT)”, the “recombinant barcode read abundance (log10)” value amounted to 1.24.

With “AGGTCCTCTTGGGTTCTAACCTGTTGCGT (site AGGTCCTCTAA)”, the “recombinant barcode read abundance (log10)” value was 0.295.

As to “AGGTCCTCTTGGGTTCTAACCTGTTGCGT (site AGGTCCTCTAC)”, the “recombinant barcode read abundance (log10)” value amounted to 2.67.

Consider “AGGTCCTCTTGGGTTCTAACCTGTTGCGT (site AGGTCCTCTAG)”, for which the “recombinant barcode read abundance (log10)” value came to 0.73.

Take “AGGTCCTCTTGGGTTCTAACCTGTTGCGT (site AGGTCCTCTAT)”: the “recombinant barcode read abundance (log10)” value is 1.71.

With “AGGTCTGCTTGGGTTCTAACCTGTTGCCT (site AGGTATGCTAG)”, the “recombinant barcode read abundance (log10)” value came to 0.321.

On to “AGGTCTGCTTGGGTTCTAACCTGTTGCCT (site AGGTCTGCTAG)”, for which the “recombinant barcode read abundance (log10)” value is 0.58.

Turning to “AGGTCTGCTTGGGTTCTAACCTGTTGCCT (site AGGTGTGCTAG)”, the “recombinant barcode read abundance (log10)” value was found to be 0.12.

In the case of “AGGTCTGCTTGGGTTCTAACCTGTTGCCT (site AGGTTTGCTAG)”, the “recombinant barcode read abundance (log10)” value is 0.0282.

For the sequence “AGGTGTGCTTGGGTTCTAACCTGTTGCCT (site AGGTATGCTAG)”, the “recombinant barcode read abundance (log10)” value is 0.289.
